Data taken from paper PMC4022186 (Biochemistry, 2012).

Tests used:
[1] = molecular target: T1, E. coli QueD (CPH4 synthase) (Escherichia coli, UniProt P65870); experiment: preparative conversion to [7R-D]-CPH4; type: biochemical; conditions: 5 μM QueD, 20 mM PIPES pH 7.4, 10 mM DTT, 18 h, H2O
[2] = molecular target: T1, E. coli QueD (CPH4 synthase); experiment: preparative conversion to [[…]-2H]-CPH4; type: biochemical; conditions: 5 mM sepiapterin, 15 μM QueD, 20 mM PIPES, 99.9% D2O, 20 h

T1 sequence (P65870 whole entry): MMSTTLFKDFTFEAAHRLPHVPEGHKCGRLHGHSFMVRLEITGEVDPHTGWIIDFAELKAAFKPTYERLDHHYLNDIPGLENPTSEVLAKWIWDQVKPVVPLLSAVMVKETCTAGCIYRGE

Row | Structure (SMILES) | preparative conversion to [7R-D]-CPH4; FT-ICR MS of product [1] | preparative conversion to [6-2H]-CPH4; FT-ICR MS of product [2]
1 | Nc1nc2c(c(=O)[nH]1)N=C([C@H](O)[C@H](O)COP(=O)(O)OP(=O)(O)OP(=O)(O)O)CN2 [H2NTP] | The resulting H2NTP was converted to CPH4 in a reaction mixture | –
2 | C[C@H](O)C(=O)C1=Nc2c(nc(N)[nH]c2=O)NC1 [sepiapterin] | – | this reaction was used to prepare CPH4 containing deuterium at C-6
